In US20230002361A1, “2H-INDAZOLE DERIVATIVES AND THEIR USE IN THE TREATMENT OF DISEASE” (BIOGEN MA INC., priority 2019, published 2023):
Counter-ions that a name gives are not always drawn. Like-named read-outs stand apart in the source and are kept apart here.

Assays:
MDR1 (P-gp) = target: T1, MDR1 (P-gp) (Homo sapiens, UniProt P08183); assay: MDR1-MDCK assay (efflux ratio); type: in vitro ADME; settings: human, MDCK-MDR1, 1 μM compound, 120 minutes incubation; read-out: MDR1-MDCK Efflux Ratio; (B-A/A-B)
T1 construct: host or cells: MDCK cells
T1 sequence (P08183 whole entry): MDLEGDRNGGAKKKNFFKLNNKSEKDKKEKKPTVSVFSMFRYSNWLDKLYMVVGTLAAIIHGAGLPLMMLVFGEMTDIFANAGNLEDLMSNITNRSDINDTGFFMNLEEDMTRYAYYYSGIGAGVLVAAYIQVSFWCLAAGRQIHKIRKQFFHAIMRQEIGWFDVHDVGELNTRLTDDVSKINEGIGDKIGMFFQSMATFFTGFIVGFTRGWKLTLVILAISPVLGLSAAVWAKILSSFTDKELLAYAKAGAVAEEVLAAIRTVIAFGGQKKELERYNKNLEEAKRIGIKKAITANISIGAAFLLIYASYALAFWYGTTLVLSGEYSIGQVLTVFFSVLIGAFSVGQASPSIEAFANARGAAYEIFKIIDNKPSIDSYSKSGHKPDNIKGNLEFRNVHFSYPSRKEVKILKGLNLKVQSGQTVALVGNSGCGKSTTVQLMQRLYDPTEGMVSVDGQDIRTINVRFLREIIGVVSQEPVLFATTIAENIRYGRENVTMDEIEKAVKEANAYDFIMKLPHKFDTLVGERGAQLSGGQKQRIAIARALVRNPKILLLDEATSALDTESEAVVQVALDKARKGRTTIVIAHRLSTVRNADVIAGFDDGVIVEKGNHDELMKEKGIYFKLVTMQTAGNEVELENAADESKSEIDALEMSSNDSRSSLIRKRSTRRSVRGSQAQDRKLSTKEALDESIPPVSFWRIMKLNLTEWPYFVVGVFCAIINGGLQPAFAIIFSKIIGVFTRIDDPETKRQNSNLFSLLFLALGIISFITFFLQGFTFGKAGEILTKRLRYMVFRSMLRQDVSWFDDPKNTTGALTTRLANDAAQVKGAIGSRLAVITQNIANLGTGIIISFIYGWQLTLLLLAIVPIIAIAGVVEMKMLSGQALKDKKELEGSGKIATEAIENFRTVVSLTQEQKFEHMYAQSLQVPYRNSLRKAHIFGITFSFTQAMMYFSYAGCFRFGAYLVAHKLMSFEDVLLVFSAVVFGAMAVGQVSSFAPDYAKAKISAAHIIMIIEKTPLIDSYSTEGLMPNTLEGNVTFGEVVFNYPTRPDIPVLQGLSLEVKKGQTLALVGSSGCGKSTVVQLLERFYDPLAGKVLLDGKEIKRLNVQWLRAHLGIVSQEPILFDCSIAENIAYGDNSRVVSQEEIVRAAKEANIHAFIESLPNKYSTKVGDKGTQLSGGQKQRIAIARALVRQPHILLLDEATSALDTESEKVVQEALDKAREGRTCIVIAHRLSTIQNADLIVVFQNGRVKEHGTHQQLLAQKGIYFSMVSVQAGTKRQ
Summary of the method: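 Human MDR1-transfected MDCK monolayers, cultured 7 days on transwell inserts with TEER checked, were dosed with compound at 1 μM in HBSS-HEPES. Transport was measured in both A-B and B-A directions. Efflux ratio came from the directional permeabilities, with mass balance also calculated.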

IRAK4 = target: T2, IRAK4 (Homo sapiens, UniProt Q9NWZ3); assay: IRAK4 MSD Biochemical Assay (1 mM ATP, 2 h); settings: room temperature
T2 construct: with 0.1 nM IRAK4, 1.6 μM of biotinylated peptide substrate and 10 μM ATP
T2 sequence (Q9NWZ3 1-460): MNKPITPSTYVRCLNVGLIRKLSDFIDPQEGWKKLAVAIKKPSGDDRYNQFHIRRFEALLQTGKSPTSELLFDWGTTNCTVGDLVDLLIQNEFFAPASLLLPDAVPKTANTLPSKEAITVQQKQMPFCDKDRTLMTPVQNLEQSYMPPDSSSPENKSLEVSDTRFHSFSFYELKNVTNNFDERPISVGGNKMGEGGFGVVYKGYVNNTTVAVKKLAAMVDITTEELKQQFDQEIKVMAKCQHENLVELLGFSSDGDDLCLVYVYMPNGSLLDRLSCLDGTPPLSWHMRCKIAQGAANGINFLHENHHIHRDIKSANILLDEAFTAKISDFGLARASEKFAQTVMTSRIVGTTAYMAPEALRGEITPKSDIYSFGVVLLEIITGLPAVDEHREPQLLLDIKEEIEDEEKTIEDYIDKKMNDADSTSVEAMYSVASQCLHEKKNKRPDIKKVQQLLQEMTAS
Summary of the method: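 Run with 1 mM ATP and […] for 2 h, then quenched with EDTA, pH 8. The phosphorylated biotinylated peptide was captured on streptavidin plates and detected with anti-phospho-threonine antibody plus Sulfo-Tag secondary by MSD electrochemiluminescence.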

[1] = read-out: IRAK4 MSD Biochemical Assay (1 mM ATP, 2 h) IC50

Row | Structure (SMILES) | efflux ratio at 120 min, 1 μM (MDR1 (P-gp)) | IC50 (IRAK4; [1]) [nM] | IC50 (IRAK4; IRAK4 MSD Biochemical Assay (1 mM ATP, 2 h) IC50 (nM)) [nM]
1 | COc1ncccc1NC(=O)c1cc2cn(CCC(C)(C)O)nc2nc1OC(C)C [Example 40, 2-(3-Hydroxy-3-methylbutyl)-6-isopropoxy-N-(2-methoxypyridin-3-yl)-2H-pyrazolo[3,4-b]pyridine-5-carboxamide] | 5.7 | 0.7 | –
2 | CC(C)Oc1cc2nn(C)cc2cc1C(=O)Nc1cccc(C(F)F)n1 [Example 41, N-(6-(difluoromethyl)pyridin-2-yl)-6-isopropoxy-2-methyl-2H-indazole-5-carboxamide] | 0.3 | 3.2 | –
3 | Cl.O=C(Nc1cccc(C(F)F)n1)c1cc2cn(C3CCOCC3)nc2cc1O[C@H]1C[C@H](C(F)F)C1 [Example 48, 6-((1R,3R)-3-(difluoromethyl)cyclobutoxy)-N-(6-(difluoromethyl)pyridin-2-yl)-2-(tetrahydro-2H-pyran-4-yl)-2H-indazole-5-carboxamide Hydrochloride] | 1.3 | 0.5 | –
4 | Cl.O=C(Nc1cccc(C(F)F)n1)c1cc2cn(C3CCOCC3)nc2cc1OCC1CC(F)(F)C1 [Example 49, 6-((3,3-Difluorocyclobutyl)methoxy)-N-(6-(difluoromethyl)pyridin-2-yl)-2-(tetrahydro-2H-pyran-4-yl)-2H-indazole-5-carboxamide Hydrochloride] | 1.4 | 2 | –
5 | CO[C@H]1C[C@H](Oc2cc3nn(C4CCOCC4)cc3cc2C(=O)Nc2cccc(C(F)F)n2)C1.Cl [Example 50, N-(6-(difluoromethyl)pyridin-2-yl)-6-((1R,3R)-3-methoxycyclobutoxy)-2-(tetrahydro-2H-pyran-4-yl)-2H-indazole-5-carboxamide Hydrochloride] | 1.4 | 0.2 | –
6 | CC(C)Oc1cc2nn(C3CCOCC3)cc2cc1C(=O)Nc1cccc2ccnn12 [Example 51, 6-Isopropoxy-N-(pyrazolo[1,5-a]pyridin-7-yl)-2-(tetrahydro-2H-pyran-4-yl)-2H-indazole-5-carboxamide] | 0.9 | 1.3 | –
7 | CC(C)Oc1nc2nn(CC3CCOC3)cc2cc1C(=O)Nc1cnn2cccnc12 (stereo not shown) [Example 54, 6-Isopropoxy-N-(pyrazolo[1,5-a]pyrimidin-3-yl)-2-((tetrahydrofuran-3-yl)methyl)-2H-pyrazolo[3,4-b]pyridine-5-carboxamide] | 3.6 | – | 1.3
8 | Cc1cnc2c(NC(=O)c3cc4cn(C56COC(C)(C5)C6)nc4cc3OC3CCC3)cnn2c1 [Example 56, 6-Cyclobutoxy-2-(1-methyl-2-oxabicyclo[2.1.1]hexan-4-yl)-N-(6-methylpyrazolo[1,5-a]pyrimidin-3-yl)-2H-indazole-5-carboxamide Trifluoroacetate] | 2 | 0.5 | –
9 | CC(C)Oc1cc2nn(C34CCC(C)(C3)OC4)cc2cc1C(=O)Nc1cccn(C)c1=O (stereo not shown) [Example 57, 6-Isopropoxy-N-(1-methyl-2-oxo-1,2-dihydropyridin-3-yl)-2-(1-methyl-2-oxabicyclo[2.2.1]heptan-4-yl)-2H-indazole-5-carboxamide] | 1.1 | 0.8 | –
10 | CC(C)Oc1cc2nn(C34CCC(C)(CC3)OC4)cc2cc1C(=O)Nc1cccn(C)c1=O [Example 58, 6-Isopropoxy-N-(1-methyl-2-oxo-1,2-dihydropyridin-3-yl)-2-(1-methyl-2-oxabicyclo[2.2.2]octan-4-yl)-2H-indazole-5-carboxamide Trifluoroacetate] | 0.9 | 0.4 | –
11 | COCCC(C)n1cc2cc(C(=O)Nc3cccc(C(F)F)n3)c(OC(C)C)cc2n1.Cl (stereo not shown) [Example 59, N-(6-(difluoromethyl)pyridin-2-yl)-6-isopropoxy-2-(4-methoxybutan-2-yl)-2H-indazole-5-carboxamide hydrochloride] | 0.4 | 1 | –
